# In patent US10155021B2, “Antimicrobial 4-oxoquinolizines” (Emergent Product Development Gaithersburg Inc., priority 2011, dated 2018):
# Like-named read-outs stand apart in the source and are kept apart here.
# Tests used:
# A. baumannii A401 [1] = test: MIC without and with sub-inhibitory polymyxin B (Example 4); type: cell-based, Acinetobacter baumannii; conditions: for MIC: Acinetobacter baumannii, A401, A baumannii A 401, without polymyxin B, read-out: MIC without PB
# [2] = system: Acinetobacter sp. (H064200250); test: Preliminary MBC without and with sub-inhibitory polymyxin B (Example 4); type: cell-based; conditions: Acinetobacter, without polymyxin B, preliminary MBC, read-out: MBC without PB
# Outline: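 Incubation 18-20 h, 37° C. MBC = lowest conc. with ~90% fewer colonies than positive control (single/no colonies).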
# A. baumannii A472 [3] = test: MIC without and with sub-inhibitory polymyxin B (Example 4); type: cell-based, Acinetobacter baumannii; conditions: Acinetobacter baumannii, A472, A. baumannii A472, without polymyxin B, read-out: MIC without PB
# A. baumannii ATCC 19606 = test: as above; type: cell-based, Acinetobacter baumannii; conditions: Acinetobacter baumannii, ATCC19606, A. baumannii ATCC 19606, without polymyxin B, read-out: MIC without PB
# A. baumannii J2 [4] = test: Preliminary MBC without and with sub-inhibitory polymyxin B (Example 4); type: cell-based, Acinetobacter baumannii; conditions: Acinetobacter baumannii, J2, A. baumannii J2, without polymyxin B, preliminary MBC, read-out: MBC without PB
# A. baumannii A329 [5] = test: MIC determination for Acinetobacter strains (Example 3); type: cell-based; conditions: LEV R, CIP R, MRP R, IMP R, AMK R, TET R
# A. baumannii A 401 = test: as above; type: cell-based; conditions: A401, LEV R, CIP R, AMK R, TET R
# [6] = system: Acinetobacter sp. (H064200250); test: MIC without and with sub-inhibitory polymyxin B (Example 4); type: cell-based; conditions: Acinetobacter, without polymyxin B, read-out: MIC without PB
# A. baumannii A329 [7] = test: as above; type: cell-based, Acinetobacter baumannii; conditions: Acinetobacter baumannii, A329, A. baumannii A329, without polymyxin B, read-out: MIC without PB
# A. baumannii A329 [8] = test: Preliminary MBC without and with sub-inhibitory polymyxin B (Example 4); type: cell-based, Acinetobacter baumannii; conditions: Acinetobacter baumannii, A329, A. baumannii A329, without polymyxin B, 1st experiment, read-out: MBC without PB
# A. baumannii J2 [9] = test: MIC without and with sub-inhibitory polymyxin B (Example 4); type: cell-based, Acinetobacter baumannii; conditions: Acinetobacter baumannii, J2, A. baumannii J2, without polymyxin B, read-out: MIC without PB
# A. baumannii A489 [10] = test: as above; type: cell-based, Acinetobacter baumannii; conditions: Acinetobacter baumannii, A489, A. baumannii A489, without polymyxin B, read-out: MIC without PB
# A. baumannii A472 [11] = test: MIC determination for Acinetobacter strains (Example 3); type: cell-based; conditions: LEV R, CIP R, MRP I, IMP I, AMK R, TET R
# [12] = system: resistant strains of A. baumannii and one strain of Acinetobacter sp.; test: MIC without and with sub-inhibitory polymyxin B, whole panel / MIC ranges (Example 4; also strains not listed separately); type: cell-based; conditions: Acinetobacter baumannii
# A. baumannii A390 = test: Preliminary MBC without and with sub-inhibitory polymyxin B (Example 4); type: cell-based, Acinetobacter baumannii; conditions: Acinetobacter baumannii, A390, A. baumannii A390, without polymyxin B, preliminary MBC, read-out: MBC without PB
# A. baumannii A489 [13] = test: as above; type: cell-based, Acinetobacter baumannii; conditions: Acinetobacter baumannii, A489, A. baumannii A489, without polymyxin B, read-out: MBC without PB
# A. baumannii A401 [14] = test: as above; type: cell-based, Acinetobacter baumannii; conditions: Acinetobacter baumannii, A401, A baumannii A 401, without polymyxin B, preliminary MBC, read-out: MBC without PB
# A. baumannii A473 = test: MIC without and with sub-inhibitory polymyxin B (Example 4); type: cell-based, Acinetobacter baumannii; conditions: Acinetobacter baumannii, A473, A. baumannii A473, without polymyxin B, read-out: MIC without PB
# [15] = Acinetobacter spp. H064200250, 1st experiment
smiles,measurement,setting,value
"Cc1c(-c2ccc(N)c(F)c2)ccn2c(=O)c(C(=O)O)cc(C3CC3)c12 [Compound 1, 8-(3-fluoro-4-amino-phenyl)-1-cyclopropyl-9-methyl-4-oxo-quinolizine-3-carboxylic acid]",MIC ratio without/with polymyxin B,"A. baumannii A401 [1]; A baumannii A 401, ratio MIC without PB to MIC + PB, PB 0.06 μg/ml, 2nd experiment",≥ 512 µg/mL
same,MIC,A. baumannii A401 [1]; 1st experiment,4 µg/mL
same,MIC,"A. baumannii A401 [1]; 2nd experiment, visual reading",16 µg/mL
same,MBC,"[2]; Acinetobacter spp. H064200250 (OXA51), 2nd experiment",32 µg/mL
same,MBC,[2]; [15],8 µg/mL
same,MIC,A. baumannii A472 [3]; 1st experiment,8 µg/mL
same,MIC,"A. baumannii A472 [3]; 2nd experiment, visual reading",8 µg/mL
same,MIC,A. baumannii ATCC 19606; 1st experiment,0.25 µg/mL
same,MIC,"A. baumannii ATCC 19606; 2nd experiment, visual reading",0.25 µg/mL
same,MBC,A. baumannii J2 [4]; 2nd experiment,16 µg/mL
same,MBC,A. baumannii J2 [4]; 1st experiment,8 µg/mL
same,MIC,A. baumannii A329 [5],16 µg/mL
same,MIC,A. baumannii A 401,4 µg/mL
same,MIC,"[6]; Acinetobacter spp. H064200250 (OXA51), 2nd experiment, visual reading",16 µg/mL
same,MIC,[6]; [15],8 µg/mL
same,MIC,A. baumannii A329 [7]; 1st experiment,16 µg/mL
same,MIC,"A. baumannii A329 [7]; 2nd experiment, visual reading",16 µg/mL
same,MBC,A. baumannii A329 [8],16 µg/mL
same,MIC,A. baumannii J2 [9]; 1st experiment,8 µg/mL
same,MIC,"A. baumannii J2 [9]; 2nd experiment, visual reading",16 µg/mL
same,MIC,A. baumannii A489 [10]; 1st experiment,4 µg/mL
same,MIC,"A. baumannii A489 [10]; 2nd experiment, visual reading",16 µg/mL
same,MIC,A. baumannii A472 [11],8 µg/mL
same,MIC,"[12]; read-out: MIC range without PB 01-10-2008 n = 8, without polymyxin B, 1st experiment, 8 strains",1 to 32 µg/mL
same,MIC,"[12]; without polymyxin B, 2nd experiment, 11 strains, read-out: MIC range without PB 14-10-2008 n = 11",4 to 32 µg/mL
same,MBC,A. baumannii A390; 2nd experiment,16 µg/mL
same,MBC,A. baumannii A390; 1st experiment,16 µg/mL
same,MBC,A. baumannii A489 [13]; 1st experiment,8 µg/mL
same,MBC,A. baumannii A489 [13]; 2nd experiment,16 µg/mL
same,MBC,A. baumannii A401 [14]; 2nd experiment,8 µg/mL
same,MBC,A. baumannii A401 [14]; 1st experiment,16 µg/mL
same,MIC,A. baumannii A473; 1st experiment,4 µg/mL
same,MIC,"A. baumannii A473; 2nd experiment, visual reading",8 µg/mL
